{"source": "patent US20080227752A1", "about": "“Methods to Inhibit Histone Acetyltransferase Using Glycosaminoglycans” (Trustees of Boston University, priority 2004, published 2008)", "target": "T1, pCAF (Homo sapiens, UniProt Q92831)", "T1 construct": "purchased BIOMOL International (Plymouth Meeting, Pa.)", "T1 sequence (Q92831 whole entry, the tested form may be a part)": "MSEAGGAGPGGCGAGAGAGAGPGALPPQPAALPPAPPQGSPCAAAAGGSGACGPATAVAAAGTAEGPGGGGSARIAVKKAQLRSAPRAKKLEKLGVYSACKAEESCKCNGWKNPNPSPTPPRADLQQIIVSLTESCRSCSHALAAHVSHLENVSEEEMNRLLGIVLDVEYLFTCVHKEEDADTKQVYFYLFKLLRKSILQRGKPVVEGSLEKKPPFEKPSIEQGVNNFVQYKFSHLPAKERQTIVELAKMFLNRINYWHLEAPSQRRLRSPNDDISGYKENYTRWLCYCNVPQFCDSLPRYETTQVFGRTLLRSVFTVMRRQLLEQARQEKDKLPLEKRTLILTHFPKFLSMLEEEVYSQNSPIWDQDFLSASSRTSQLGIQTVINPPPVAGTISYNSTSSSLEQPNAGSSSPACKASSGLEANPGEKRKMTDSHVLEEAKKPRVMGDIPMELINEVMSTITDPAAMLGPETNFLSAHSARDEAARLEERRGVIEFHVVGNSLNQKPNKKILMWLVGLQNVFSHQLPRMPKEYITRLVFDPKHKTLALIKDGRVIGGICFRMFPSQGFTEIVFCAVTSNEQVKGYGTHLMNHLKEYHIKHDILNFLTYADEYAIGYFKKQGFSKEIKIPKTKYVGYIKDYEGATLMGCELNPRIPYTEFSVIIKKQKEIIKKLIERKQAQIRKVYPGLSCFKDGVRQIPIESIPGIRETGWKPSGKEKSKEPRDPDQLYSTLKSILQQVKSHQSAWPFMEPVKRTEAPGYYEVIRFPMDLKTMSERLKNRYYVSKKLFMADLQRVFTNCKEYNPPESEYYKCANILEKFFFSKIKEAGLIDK", "assay": "Core histone acetylation filter binding HAT assay, pCAF", "type": "biochemical", "details": "core histones, 30 minutes 30° C", "method": "In the presence of 0.5 μCi [^3H]acetyl Co A, 10 μg core histones was incubated with either 0.5 μg pCAF (filled circles, […]) or 0.83 μg p300 HAT domain (open circles, ∘) and the indicated heparin concentrations for 30 minutes at 30° C. Formation of [^3H]acetylated core histones was determined by vacuum filtration of the samples across a nitrocellulose membrane and quantitated by liquid scintillation counting. The data is expressed as the mean % Control ±SD. Background CPM in samples without added enzyme was 5781.25 while [^3H]acetylated histone CPM in samples without heparin were 16484.5 for the pCAF containing samples and 9960.5 for the p300 HAT domain samples.\n10 μg core histones were incubated with 0.5 μg pCAF, 0.5 μCi [^3H]acetyl Co A and the indicated concentrations of chondroitin sulfate (filled circles, […]), dextran (open circles, ∘), D-glucosamine (filled squares, ▪), hyaluronic acid (open squares, □) or keratan sulfate (filled triangles, ▴) for 30 minutes at 30° C. 35 μl aliquots of the reaction mixtures were spotted onto nitrocellulose filter in a dot blot apparatus under vacuum to remove unincorporated [^3H]acetyl Co A. The sample wells and filters were washed with 50 mM tris pH 7.6 and the samples were processed for liquid scintillation counting. The data is expressed as the mean % Control ±SD. 100% is equal to the activity in the absence of any additives.\n10 μg core histones was incubated with 0.5 μg pCAF, 0.5 μCi [^3H]acetyl Co A and the indicated concentrations of N-Desulfated Heparin (filled circles, […]) or Fully O-Desulfated Heparin (open circles, ∘) for 30 minutes at 30° C. 35 μl aliquots of the reaction mixtures were filtered through a nitrocellulose filter in a Bio Dot Apparatus under vacuum. The wells and filter were washed with 50 mM tris pH 7.6 and the membrane was processed for liquid scintillation counting. The data is expressed as the mean % Control ±SD.\nFIGS. 15A and 15B show inhibition of pCAF HAT Activity by elastase generated proteoglycans. FIG. 15A, Proteoglycans (PG) were purified from pulmonary fibroblast elastase supernatants using anion exchange chromatographic methods. Heparan sulfate proteoglycan fragments (HSPGf) were generated by treating the PG fraction with 10 mU/ml chondroitinase ABC and repurifying the fragments by anion exchange chromatography. Core histones (10 μg) were incubated with 0.5 μg pCAF, 0.5 μCi [^3H]acetyl Co A and the indicated concentrations of PG (filled squares, ▪) or HSPGf (open squares, □) for 30 minutes at 30° C. 35 μl aliquots of the reaction mixtures were filtered through a nitrocellulose filter and the membrane was processed for liquid scintillation counting. The data is expressed as the mean % Control ±SD. FIG. 15B, Proteoglycans (PG) were purified from another preparation of pulmonary fibroblast elastase supernatants. Free GAG chains (B-PG) were generated by treating the PG fraction with alkaline borohydride and were recovered by anion exchange methods. Core histones (Core histones (10 μg) were incubated with 0.5 μg pCAF, 0.5 μCi [^3H]acetyl Co A and the indicated concentrations of PG (filled squares, ▪) or B-PG (open squares, □) for 30 minutes at 30° C. 35 μl aliquots of the reaction mixtures were filtered through a nitrocellulose filter and the membrane was processed for liquid scintillation counting. The data is expressed as the mean % Control ±SD.\n10 μg core histones was incubated with 0.5 μg pCAF, 0.5 μCi [^3H]acetyl Co A and the indicated concentrations of 2-O-Desulfated Heparin ([…]) or 6-O-Desulfated Heparin (∘) for 30 minutes at 30° C. 35 μl aliquots of the reaction mixtures were filtered through a nitrocellulose filter in a Bio Dot Apparatus under vacuum. The wells and filter were washed with 50 mM tris pH 7.6 and the membrane was processed for liquid scintillation counting. The data is expressed as the mean % Control ±SD. […]", "data": [{"substance": "heparin [reference compound]", "values": [{"measurement": "50% inhibition (IC50)", "result": "~7", "unit": "µg/mL"}]}]}
